Measurements reported in the supplement of paper PMC10307832.

Assays:
Test in all cases: relative viability (nuclei count vs DMSO), 5 days (fraction); higher = more cells survive
TPCA-1 + Vorinostat = compound: C1=CC(=CC=C1C2=CC(=C(S2)NC(=O)N)C(=O)N)F [TPCA-1] + O=C(CCCCCCC(=O)Nc1ccccc1)NO [Vorinostat] (partner 1 µM)
Summary of the method: (§1)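 Nuclei were stained with Hoechst during a one-step fixation (final 0.05% Triton X-100, 1% formaldehyde, 1 ug/ml Hoechst) carried out 5 days after dosing, then counted on 4× images. The cells, lung cancer lines in 1536-well plates, had been dosed by pin tool the day after seeding with one drug alone or a fixed anchor-drug dose plus five library-drug doses (not always all listed) in √10 steps. Relative viability is the nuclei count in treated wells divided by that in vehicle wells, and each value is the median of duplicate plates.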

[1] = compound: C[C@]12O[C@H](C[C@]1(O)CO)n1c3ccccc3c3c4c(c5c6ccccc6n2c5c31)CNC4=O [Lestaurtinib] + Cc1cc(Nc2cc(N3CCN(C)CC3)nc(Sc3ccc(NC(=O)C4CC4)cc3)n2)n[nH]1 [Tozasertib] (partner 0.1 µM)
Summary of the method: as §1

Lestaurtinib + Dasatinib = compound: C[C@]12O[C@H](C[C@]1(O)CO)n1c3ccccc3c3c4c(c5c6ccccc6n2c5c31)CNC4=O [Lestaurtinib] + Cc1nc(Nc2ncc(C(=O)Nc3c(C)cccc3Cl)s2)cc(N2CCN(CCO)CC2)n1 [Dasatinib] (partner 0.075 µM)
Summary of the method: as §1

TPCA-1 + Alpelisib = compound: C1=CC(=CC=C1C2=CC(=C(S2)NC(=O)N)C(=O)N)F [TPCA-1] + Cc1nc(NC(=O)N2CCC[C@H]2C(N)=O)sc1-c1ccnc(C(C)(C)C(F)(F)F)c1 [Alpelisib] (partner 2 µM)
Summary of the method: as §1

| Cell Line | relative viability (TPCA-1 + Vorinostat; first compound 0.04 µM) | relative viability (TPCA-1 + Vorinostat; first compound 0.1265 µM) | relative viability (TPCA-1 + Vorinostat; first compound 0.4 µM) | relative viability (TPCA-1 + Vorinostat; first compound 1.265 µM) | relative viability (TPCA-1 + Vorinostat; first compound 4 µM) | relative viability ([1]; first compound 0.005 µM) | relative viability ([1]; first compound 0.01581 µM) | relative viability ([1]; first compound 0.05 µM) | relative viability ([1]; first compound 0.1581 µM) | relative viability ([1]; first compound 0.5 µM) | relative viability (Lestaurtinib + Dasatinib; first compound 0.005 µM) | relative viability (Lestaurtinib + Dasatinib; first compound 0.01581 µM) | relative viability (Lestaurtinib + Dasatinib; first compound 0.05 µM) | relative viability (Lestaurtinib + Dasatinib; first compound 0.1581 µM) | relative viability (Lestaurtinib + Dasatinib; first compound 0.5 µM) | relative viability (TPCA-1 + Alpelisib; first compound 0.04 µM) | relative viability (TPCA-1 + Alpelisib; first compound 0.1265 µM) | relative viability (TPCA-1 + Alpelisib; first compound 0.4 µM) | relative viability (TPCA-1 + Alpelisib; first compound 1.265 µM) | relative viability (TPCA-1 + Alpelisib; first compound 4 µM) |
| --- | --- | --- | --- | --- | --- | --- | --- | --- | --- | --- | --- | --- | --- | --- | --- | --- | --- | --- | --- | --- |
| EKVX | 0.724 | 0.622 | 0.766 | 0.76 | 0.654 | 0.345 | 0.432 | 0.417 | 0.378 | 0.395 | 0.477 | 0.735 | 0.562 | 0.576 | 0.373 | 0.913 | 0.838 | 0.934 | 0.726 | 0.795 |
| ABC-1 | 1.4 | 1.14 | 1.38 | 1.29 | 0.926 | 0.208 | 0.175 | 0.134 | 0.155 | 0.2 | 0.547 | 0.648 | 0.482 | 0.451 | 0.218 | 1.38 | 0.98 | 0.847 | 0.967 | 0.591 |
| NCI-H520 | 0.72 | 0.636 | 0.782 | 0.605 | 0.497 | 0.458 | 0.468 | 0.428 | 0.388 | 0.254 | 0.209 | 0.203 | 0.164 | 0.169 | 0.159 | 0.869 | 0.783 | 0.844 | 0.892 | 0.788 |
| LCLC-97TM1 | 0.844 | 0.488 | 0.905 | 0.365 | 0.0988 | 0.317 | 0.177 | 0.0893 | 0.133 | 0.171 | 0.841 | 0.853 | 0.629 | 0.753 | 0.191 | 0.249 | 0.241 | 0.223 | 0.248 | 0.187 |
| NCI-H2170 | 0.965 | 0.881 | 0.779 | 0.724 | 0.628 | 0.72 | 0.848 | 0.696 | 0.45 | 0.219 | 0.493 | 0.551 | 0.466 | 0.364 | 0.376 | 0.906 | 0.697 | 0.803 | 0.733 | 0.526 |
| NCI-H1793 | 0.619 | 0.61 | 0.967 | 0.674 | 0.236 | 0.335 | 0.279 | 0.347 | 0.265 | 0.255 | 0.431 | 0.392 | 0.316 | 0.361 | 0.271 | 0.724 | 0.646 | 0.735 | 0.828 | 0.566 |
| NCI-H3122 | 1.34 | 0.814 | 0.955 | 1 | 0.897 | 0.56 | 0.553 | 0.421 | 0.366 | 0.176 | 0.881 | 0.871 | 0.869 | 1.15 | 0.598 | 0.846 | 0.728 | 0.92 | 0.947 | 0.74 |
| PC-14 | 0.838 | 0.802 | 0.802 | 0.639 | 0.448 | 0.639 | 0.668 | 0.674 | 0.546 | 0.163 | 0.294 | 0.286 | 0.231 | 0.13 | 0.0741 | 0.952 | 0.879 | 0.965 | 0.787 | 0.75 |
| EPLC-272H | 0.53 | 0.403 | 0.523 | 0.256 | 0.258 | 0.297 | 0.282 | 0.322 | 0.231 | 0.128 | 0.282 | 0.301 | 0.169 | 0.187 | 0.125 | 1.09 | 0.793 | 1.06 | 0.851 | 0.863 |
| A-427 | 0.891 | 0.806 | 0.927 | 0.912 | 0.227 | 0.199 | 0.206 | 0.183 | 0.159 | 0.144 | 0.846 | 0.771 | 0.454 | 0.24 | 0.116 | 1.13 | 1.04 | 1.14 | 1.06 | 1.06 |
